Test system: IL-6 amplifier
Assay: Example 2: PI3 kinase inhibitors, mIL-6 protein production on IL-6 amplifier activation in BC-1 cells (ELISA)
Format: cell-based
Conditions: 24 hours, conditions (a) to (d), 0 or 100 ng/ml mouse epiregulin, LY294002 0.1-10, PIK75 0.01-1.0 micromole/L
Experimental: 2×10^5 mouse BC-1 cells were cultured in an RPMI 1640 medium for 24 hours under each of the following conditions: • (a) in the presence of 10% FBS, • (b) with the addition of 50 ng/ml of hIL-6 protein and 50 ng/ml of hIL-6R protein (hereinafter referred to as “hIL-6/6R proteins”) and in the presence of 10% FBS, • (c) with the addition of 50 ng/ml of mIL-17A protein and in the presence of 10% FBS, • (d) with the addition of hIL-6/6R proteins at 50 ng/ml and mIL-17A protein at 50 ng/ml and in the presence of 10% FBS, • (e) in the absence of FBS, • (f) with the addition of hIL-6/6R proteins each at 50 ng/ml and in the absence of FBS, • (g) with the addition of 50 ng/ml of mIL-17A protein and in the absence of FBS, or • (h) with the addition of hIL-6/6R proteins each at 50 ng/ml and mIL-17A protein at 50 ng/ml and in the absence of FBS. […]
After the culture, the production amount of mouse IL-6 protein under each condition was quantified by an ELISA method. […]

## O=c1cc(N2CCOCC2)oc2c(-c3ccccc3)cccc12 [LY294002, 2-(4-Morpholinyl)-8-phenyl-4H-1-benzopyran-4-one]
  increase in the expression amount of mIL-6 protein due to the activation of IL-6 amplifier: can be suppressed

Source: patent publication US20130236473A1, “THERAPEUTIC AGENTS AND PROPHYLACTIC AGENTS FOR SYMPTOMS ACCOMPANYING AUTOIMMUNE DISEASES, INFLAMMATORY DISEASES, ALLERGY DISEASES AND ORGAN TRANSPLANTS” (OSAKA UNIVERSITY, priority 2010, published 2013)
